US9073855B2, “BCL-2 selective apoptosis-inducing agents for the treatment of cancer and immune diseases” (AbbVie Inc., priority 2008, dated 2015)

How the values were obtained:
GST-Bcl-XL = GST-Bcl-XL (Homo sapiens, UniProt Q07817); assay: TR-FRET binding assay, GST-Bcl-XL with F-Bak peptide probe; conditions: TR-FRET Binding Affinity, GST-Bcl-XL, F-Bak peptide probe
Procedure, shortened: (§1)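 Displacement of a fluorescein-labelled Bak peptide from the GST-tagged protein was followed by time-resolved FRET with a terbium anti-GST donor after 3 h incubation at room temperature. Inhibition constants were calculated with Wang's equation.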

FL5.12/Bcl-2 cells = assay: FL5.12/Bcl-2 cell viability assay under IL-3 withdrawal (CellTitre Glo); format: cell-based, murine; conditions: Mus musculus, IL-3 withdrawn 48 hrs, then 24 hrs with compound
Procedure, shortened: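 Viability measured by CellTitre Glo after FL5.12/Bcl-2 murine cells, starved of IL-3 for 48 hrs, were treated with compounds for another 24 hrs. Killing reflects inhibition of Bcl-2 sequestration of Bim and Puma.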

GST-Bcl-2 = GST-Bcl-2 (Homo sapiens, UniProt P10415); assay: TR-FRET binding assay, GST-Bcl-2 with F-Bak peptide probe; conditions: TR-FRET Binding Affinity, GST-Bcl-2, F-Bak peptide probe
Procedure, shortened: as §1

Sequence of GST-Bcl-XL (Q07817 whole entry): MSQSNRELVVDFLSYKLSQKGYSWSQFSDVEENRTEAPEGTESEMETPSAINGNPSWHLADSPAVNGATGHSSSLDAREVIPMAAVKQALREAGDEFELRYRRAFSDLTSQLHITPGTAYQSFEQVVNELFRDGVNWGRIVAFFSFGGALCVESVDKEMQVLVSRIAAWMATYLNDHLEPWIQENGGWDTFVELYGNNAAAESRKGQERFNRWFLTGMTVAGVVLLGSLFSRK
Sequence of GST-Bcl-2 (P10415 whole entry): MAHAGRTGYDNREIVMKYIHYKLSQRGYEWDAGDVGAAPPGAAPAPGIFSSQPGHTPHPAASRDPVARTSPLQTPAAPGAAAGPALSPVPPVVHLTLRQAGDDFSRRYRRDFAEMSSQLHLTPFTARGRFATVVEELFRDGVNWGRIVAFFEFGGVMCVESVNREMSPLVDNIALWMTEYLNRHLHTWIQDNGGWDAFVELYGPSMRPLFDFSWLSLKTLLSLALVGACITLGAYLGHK

## COCCCNc1ccc(S(=O)(=O)NC(=O)c2ccc(N3CCN(CC4=C(c5ccc(Cl)cc5)CC(C)(C)CC4)CC3)cc2Oc2cccc3[nH]ccc23)cc1[N+](=O)[O-] [Example 318, 4-(4-{[2-(4-chlorophenyl)-4,4-dimethylcyclohex-1-en-1-yl]methyl}piperazin-1-yl)-2-(1H-indol-4-yloxy)-N-({4-[(3-methoxypropyl)amino]-3-nitrophenyl}sulfonyl)benzamide]
GST-Bcl-XL
  Ki: 151 nM
FL5.12/Bcl-2 cells
  EC50: 77 nM
GST-Bcl-2
  Ki: 1.47 nM

## CN(C)C1(CNc2ccc(S(=O)(=O)NC(=O)c3ccc(N4CCN(CC5=C(c6ccc(Cl)cc6)CC(C)(C)CC5)CC4)cc3Oc3ccc4[nH]ccc4c3)cc2[N+](=O)[O-])CCOCC1 [Example 207, 4-(4-{[2-(4-chlorophenyl)-4,4-dimethylcyclohex-1-en-1-yl]methyl}piperazin-1-yl)-N-{[4-({[4-(dimethylamino)tetrahydro-2H-pyran-4-yl]methyl}amino)-3-nitrophenyl]sulfonyl}-2-(1H-indol-5-yloxy)benzamide]
GST-Bcl-XL
  Ki: > 660 nM
FL5.12/Bcl-2 cells
  EC50: 120 nM
GST-Bcl-2
  Ki: 0.218 nM

## CC1(C)CCC(CN2CCN(c3ccc(C(=O)NS(=O)(=O)c4ccc(NCC5CCS(=O)(=O)C5)c([N+](=O)[O-])c4)c(Oc4cccc5[nH]ccc45)c3)CC2)=C(c2ccc(Cl)cc2)C1 (stereo not drawn) [Example 326, 4-(4-{[2-(4-chlorophenyl)-4,4-dimethylcyclohex-1-en-1-yl]methyl}piperazin-1-yl)-N-[(4-{[(1,1-dioxidotetrahydrothien-3-yl)methyl]amino}-3-nitrophenyl)sulfonyl]-2-(1H-indol-4-yloxy)benzamide]
GST-Bcl-XL
  Ki: > 660 nM
FL5.12/Bcl-2 cells
  EC50: 35.1 nM
GST-Bcl-2
  Ki: 0.116 nM

## O=C(NS(=O)(=O)c1ccc(NCC2CCOCC2)c([N+](=O)[O-])c1)c1ccc(N2CCN(CC3=C(c4ccc(Cl)cc4)CCN(CCCO)C3)CC2)cc1Oc1cccc2[nH]ccc12 [Example 355, 4-(4-{[4-(4-chlorophenyl)-1-(3-hydroxypropyl)-1,2,5,6-tetrahydropyridin-3-yl]methyl}piperazin-1-yl)-2-(1H-indol-4-yloxy)-N-({3-nitro-4-[(tetrahydro-2H-pyran-4-ylmethyl)amino]phenyl}sulfonyl)benzamide]
GST-Bcl-XL
  Ki: > 660 nM
FL5.12/Bcl-2 cells
  EC50: > 500 nM
GST-Bcl-2
  Ki: 0.12 nM

## CC1(C)CCC(CN2CCN(c3ccc(C(=O)NS(=O)(=O)c4ccc(Nc5ccc(O)cc5)c([N+](=O)[O-])c4)c(Oc4ccc5[nH]ccc5c4)c3)CC2)=C(c2ccc(Cl)cc2)C1 [Example 375, 4-(4-{[2-(4-chlorophenyl)-4,4-dimethylcyclohex-1-en-1-yl]methyl}piperazin-1-yl)-N-({4-[(4-hydroxyphenyl)amino]-3-nitrophenyl}sulfonyl)-2-(1H-indol-5-yloxy)benzamide]
GST-Bcl-XL
  Ki: > 660 nM
FL5.12/Bcl-2 cells
  EC50: > 500 nM
GST-Bcl-2
  Ki: 11.3 nM

## O=C(NS(=O)(=O)c1ccc(OCC2CCOCC2)c([N+](=O)[O-])c1)c1ccc(N2CCN(Cc3ccc(C(F)(F)F)cc3-c3ccc(Cl)cc3)CC2)cc1Oc1ccc2[nH]ccc2c1 [Example 340, 4-(4-{[4′-chloro-5-(trifluoromethyl)-1,1′-biphenyl-2-yl]methyl}piperazin-1-yl)-2-(1H-indol-5-yloxy)-N-{[3-nitro-4-(tetrahydro-2H-pyran-4-ylmethoxy)phenyl]sulfonyl}benzamide]
GST-Bcl-XL
  Ki: > 660 nM
FL5.12/Bcl-2 cells
  EC50: > 500 nM
GST-Bcl-2
  Ki: 7.59 nM

## CC1(C)CCC(CN2CCN(c3ccc(C(=O)NS(=O)(=O)c4ccc(NCCCN5CCOCC5)c(S(=O)(=O)C(F)(F)F)c4)c(Oc4ccc5[nH]ccc5c4)c3)CC2)=C(c2ccc(Cl)cc2)C1 [Example 348, 4-(4-{[2-(4-chlorophenyl)-4,4-dimethylcyclohex-1-en-1-yl]methyl}piperazin-1-yl)-2-(1H-indol-5-yloxy)-N-({4-[(3-morpholin-4-ylpropyl)amino]-3-[(trifluoromethyl)sulfonyl]phenyl}sulfonyl)benzamide]
GST-Bcl-XL
  Ki: 29.3 nM
FL5.12/Bcl-2 cells
  EC50: 87.2 nM
GST-Bcl-2
  Ki: 0.302 nM
